The values that follow come from patent US8492396B2, “Therapeutic uses of adrenergic α-1 receptor antagonists” (SANOFI, priority 2007, dated 2013).

For assay [1], the system named is strips of rat urinary bladder. The assay is described as follows: eNANC contractile response to electrical field stimulation in isolated urinary bladder strips from CYP-treated rats. It counts as in vivo. To be noted: intravenous pretreatment 30 μg/kg; bladders taken 48 h after CYP 150 mg/kg i.p. The procedure: Male Sprague-Dawley rats and Swiss mice were administered with CYP (150 mg/kg, i.p.) or its vehicle (0.9% NaCl) for cystitis induction. 48 hours later urinary bladders were removed and placed in an organ bath for motor response measurement. Writhing behaviors and plasma protein extravasation were investigated 90 min after the CYP administration. Strips of rat urinary bladder were taken from terminally anesthetized animals and mounted in organ baths and after an equilibration period the eNANC contractile response to electrical field stimulation (EFS, 5 Hz, 1 ms width, 10 V) in the absence and presence of atropine (1 μM) is studied (Rigoni et al., 2003, Br J Pharmacol, 138, 977-85) The contraction produced by EFS in these experimental conditions is entirely mediated by SP and NKA released from terminals of primary sensory neurons. The eNANC response to EFS was reproducible at 60 min intervals. The effect of alfuzosin or its vehicle on the eNANC response to EFS was studied in parallel experiments. At the beginning or end of each experiment tissues were challenged with carbachol (1 μM). The effect of alfuzosin was studied also in bladder strips obtained from rats treated with cyclophosphamide. […]

For assay [2], the system named is urinary bladder taken from CYP-treated rats. Briefly: contractile response to capsaicin in urinary bladder taken from CYP-treated rats. It counts as in vivo, rat. The conditions noted are these: pretreatment with alfuzosin; bladders from CYP-treated rats. As for the experimental part: Male Sprague-Dawley rats and Swiss mice were administered with CYP (150 mg/kg, i.p.) or its vehicle (0.9% NaCl) for cystitis induction. 48 hours later urinary bladders were removed and placed in an organ bath for motor response measurement. Writhing behaviors and plasma protein extravasation were investigated 90 min after the CYP administration. […] The eNANC response to EFS was reproducible at 60 min intervals. The effect of alfuzosin or its vehicle on the eNANC response to EFS was studied in parallel experiments. At the beginning or end of each experiment tissues were challenged with carbachol (1 μM). The effect of alfuzosin was studied also in bladder strips obtained from rats treated with cyclophosphamide.

Assay [3] has as its system mice. The assay is described as follows: writhings evoked by intraperitoneal acetic acid in CYP-treated mice. In kind it is in vivo. The conditions noted are these: pre-treatment 30 μg/kg i.v., CYP 150 mg/kg i.p. As for the experimental part:
Male Sprague-Dawley rats and Swiss mice were administered with CYP (150 mg/kg, i.p.) or its vehicle (0.9% NaCl) for cystitis induction. 48 hours later urinary bladders were removed and placed in an organ bath for motor response measurement. Writhing behaviors and plasma protein extravasation were investigated 90 min after the CYP administration.
On the technique in general: An intraperitoneal irritant provokes the stretching counted in writhing tests.

The test system of assay [4] is urinary bladder. Briefly: CYP-evoked plasma protein extravasation (Evans blue) in urinary bladder. It counts as in vivo. The conditions noted are these: CYP 150 mg/kg i.p., 90 min after CYP; ruthenium red 4 mg/kg s.c.; camphor 50 μmol/kg i.p. The procedure: Male Sprague-Dawley rats and Swiss mice were administered with CYP (150 mg/kg, i.p.) or its vehicle (0.9% NaCl) for cystitis induction. 48 hours later urinary bladders were removed and placed in an organ bath for motor response measurement. Writhing behaviors and plasma protein extravasation were investigated 90 min after the CYP administration. Intraperitoneal administration of cyclophosphamide (150 mg/kg, 48 h before) is known to decrease bladder capacity and increased micturition frequency (Maggi et al., 1992, J Auton Nerv Syst, 38, 201-8). These effects of cyclophosphamide were abolished in rats pretreated with capsaicin as adults (Maggi et al., 1992, J Auton Nerv Syst, 38, 201-8). Thus, the inflammatory responses to cyclophosphamide are mediated by neurogenic inflammatory mechanisms. Evans blue dye was used to measure plasma extravasation. The proinflammatory stimulus was given immediately after the injection of the dye (30 mg/kg i.v. over 5 s) in the jugular vein. The chest was opened 10 min or at different time intervals as required after the injection of Evans blue and the animal perfused for 3 min with a phosphate buffer. The urinary bladder, urethra and prostate were removed, blotted and weighed. […] The amount of Evans blue extravasated from the […] was measured using a spectrophotometer and expressed as ng/mg of wet weight.

As to `COc1cc2nc(N(C)CCCNC(=O)C3CCCO3)nc(N)c2cc1OC` (centres unmarked) [alfuzosin], the “reversal of CYP-induced reduction of the contractile response to EFS (eNANC, in the presence of atropine)” value in assay [1] is > 50 % of reversal. In addition, the “reversal of CYP-induced reduction of the contractile response to capsaicin” value in assay [2] was ~50 % of reversal. In addition, in assay [3], the “reduction of the CYP-induced increase in number of writhings evoked by acetic acid” value is listed as 48 % of reduction.

As for `CC12CCC(CC1=O)C2(C)C` (centres unmarked) [camphor], the “CYP-evoked plasma protein extravasation in urinary bladder” value in assay [4] is reported as “completely prevented”.

With `N.N.N.N.N.N.N.N.N.N.N.N.N.N.[Cl-].[Cl-].[Cl-].[Cl-].[Cl-].[Cl-].[O-2].[O-2].[Ru+3].[Ru+3].[Ru+4]` [ruthenium red], in assay [4], the “CYP-evoked plasma protein extravasation in urinary bladder” value is recorded as “completely prevented”.
